The structures appear in SMILES notation.

human Kv1.3, sequence (P22001 whole entry): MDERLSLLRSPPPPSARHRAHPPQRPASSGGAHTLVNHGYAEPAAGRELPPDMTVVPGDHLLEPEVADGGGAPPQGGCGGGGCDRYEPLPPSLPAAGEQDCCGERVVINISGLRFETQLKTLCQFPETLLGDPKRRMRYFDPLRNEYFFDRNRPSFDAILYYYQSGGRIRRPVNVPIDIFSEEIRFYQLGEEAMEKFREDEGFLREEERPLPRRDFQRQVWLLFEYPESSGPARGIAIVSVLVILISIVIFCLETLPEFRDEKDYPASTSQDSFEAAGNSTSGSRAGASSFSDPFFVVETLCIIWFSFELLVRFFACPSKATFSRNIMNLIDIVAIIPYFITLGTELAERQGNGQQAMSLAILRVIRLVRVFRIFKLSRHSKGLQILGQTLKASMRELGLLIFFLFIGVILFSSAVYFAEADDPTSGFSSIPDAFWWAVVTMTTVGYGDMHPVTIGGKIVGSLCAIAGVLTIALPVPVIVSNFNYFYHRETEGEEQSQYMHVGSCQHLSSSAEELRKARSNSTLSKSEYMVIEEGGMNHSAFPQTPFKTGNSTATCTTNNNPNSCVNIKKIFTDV

For this assay, the target named is human Kv1.3 (Homo sapiens, UniProt P22001). Put plainly: IonWorks automated patch clamp assay of inhibitory activity against Kv1.3. It counts as cell-based. As to conditions: automated patch clamp method; CHO-K1 cells stably expressing human Kv1.3. How it is done:
I. IonWorks Automated Patch Clamp Assay of Inhibitory Activity Against Kv1.3
The principle and method for Kv1.3 IonWorks assay can be found in Schroeder et al. [Schroeder et al. J Biomol Screen 2003, 8(1):50-64]
Inhibitory activity of the compounds against Kv1.3 was assessed using a CHO-K1 recombinant cell line stably expressing human Kv1.3 (Charles River, Calif.). The cells were cultured in an F-12K culture medium containing 5% calf serum (Invitrogen, Carlsbad. Calif.) in an incubator at 37° C. and under air humidity with 6% CO2. Prior to be fed in the IonWorks system, the adherent cells were treated with Versene at 37° C. for 6-7 min. After gently beating the culture flask, the cells were re-suspended in a PBS phosphate buffer, and then were centrifuged at 50×g for 4 min. After a short grinding, the cells were eventually re-suspended in an external recording solution at a density of approximately 1×10^6/mL.
The compounds were dissolved in DMSO to formulate a final assay concentration of 300× on the master plate. The final gradient assay concentrations were […], 0.096, 0.048, 0.24, 1.2, 6 and 30 μM. All 300× stock solutions of each compound in DMSO were transferred to a 384-well plate with 2 μl per well. The plates were sealed and stored at −80° C. until the day of assay.
On the day of assay, the plates were each thawed at room temperature. After centrifugation, 198 μl of the external recording solution (with the components of: 130 mM Na-Gluconate, 20 mM NaCl, 4 mM KCl, 1 mM MgCl2, 1.8 mM CaCl2, 5 mM Glucose and 10 mM HEPES, pH7.3) was added and mixed thoroughly. This step provided a 1:100 dilution for the compounds. After addition of cells to IonWorks, a further 1:3 dilution was carried out, resulting in a total dilution of 1:300. At least 8 wells were reserved as blank control on each of the plates, i.e., containing only 0.3% DMSO. In addition, at least 8 wells were reserved as positive control to detect the specificity to cell signals. Fluoxetine, a compound as the positive control, was assayed at its maximum blocking concentration (100 μm) and secondary maximum blocking concentration (10 μm). In addition, an internal recording solution used in the assay (with the components of: 100 mM K-gluconate, 40 mM KCl, 1 mM MgCl2, 1 mM EGTA and 10 mM HEPES, pH7.3) contained Amphotericin B at a final concentration of 200 μg/mL to gain current channels inside the cells. The osmotic pressure of the solution was adjusted with sucrose.
Experimental procedures were carried out following the protocols as set by IonWorks Quattro system (Molecular Devices, San Jose, CA). The current of human Kv1.3 was elicited to 0 millivolt (mV) for four times by a pulse lasting 1 second. A potential of −80 mV was maintained between pulses, for 5 seconds. First, a early voltage application program was started in the IonWorks Quattro system, and then the compounds were added and incubated for 600 seconds. Next, a late voltage application program was started until completion of all assays.
The maximum peak outward currents both before and after addition of the compounds as well as the average tail current elicited when the fourth pulse rose to 0 mV were measured. The inhibitory activity of the compounds against Kv1.3 can be calculated by dividing the measured current amplitude after addition of the compounds by the measured current amplitude before addition of the compounds.
All data was calibrated by a data filtration program of the IonWorks Quattro system. The filtration standard was that: seal quality >30 MΩ, decrease of seal resistance <50% and current amplitude >200 pA.
Turning to `CCCS(=O)(=O)N(Cc1ccncc1)c1ccc(N2CCN(C(=O)N(C)C)CC2)c(C#N)c1` [Compound 41, 4-(2-cyano-4-(N-(pyridin-4-ylmethyl)propanesulfonamido)phenyl)-N,N-dimethylpiperazin-1-formamide], the IC50 was 131 nM. With `CCCS(=O)(=O)N(Cc1cccc(F)c1)c1ccc(N2CCN(C(=O)OCC)CC2)c(C#N)c1` [Compound 23, Ethyl 4-(2-cyano-4-(N-(3-fluorobenzyl)propanesulfonamido)phenyl) piperazin-1-formate], the IC50 came out at 176 nM. Turning to `CCCS(=O)(=O)N(Cc1ccncn1)c1ccc(N2CCN(C(=O)OCC)CC2)c(C#N)c1` [Compound 31, Ethyl 4-(2-cyano-4-(N-(pyrimidin-4-ylmethyl)propanesulfonamido)phenyl) piperazin-1-formate], the half-inhibitory concentration (IC50) is 412 nM. As to `CN(C)S(=O)(=O)N1CCN(c2ccc(N(Cc3ccnn3C)S(=O)(=O)c3ccc(F)cc3)cc2C#N)CC1` [Compound 46, 4-(2-cyano-4-((4-fluoro-N-((1-methyl-1H-pyrazol-5-yl)methyl)phenyl)sulfonamido)phenyl)-N,N-dimethylpiperazin-1-sulfonamide], the concentration for half-maximal inhibition (IC50) is 356 nM. For `CCCS(=O)(=O)N(Cc1ccco1)c1ccc(N2CCN(C(=O)OCC)CC2)c(C#N)c1` [Compound 33, Ethyl 4-(2-cyano-4-(N-(furan-2-ylmethyl)propanesulfonamido)phenyl) piperazin-1-formate] the value was 839 nM; for `CCCS(=O)(=O)N(Cc1cscn1)c1ccc(N2CCN(C(=O)OCC)CC2)c(C#N)c1` [Compound 34, Ethyl 4-(2-cyano-4-(N-(thiazol-4-ylmethyl)propanesulfonamido)phenyl) piperazin-1-formate], 645 nM; for `N#Cc1cc(N(Cc2ccccc2)S(=O)(=O)c2ccccc2)ccc1N1CCC(=O)CC1` [Compound 5, N-benzyl-N-(3-cyano-4-(4-oxopiperidin-1-yl)phenyl) benzenesulfonamide], 186 nM. `CCCN(c1ccc(N2CCN(C(=O)OCC)CC2)c(C#N)c1)S(=O)(=O)c1ccc(F)cc1` [Compound 8, Ethyl 4-(2-cyano-4-((4-fluoro-N-propylphenyl)sulfonamido)phenyl)piperazin-1-formate] had an IC50 of 9300 nM. In turn, `CN(C)C(=O)N1CCN(c2ccc(N(Cc3ccc(F)cc3)S(=O)(=O)CC(C)(C)C)cc2C#N)CC1` [Compound 40, 4-(2-cyano-4-((N-(4-fluorobenzyl)-2,2-dimethylpropyl)sulfonamido)phenyl)-N,N-dimethylpiperazin-1-formamide] displayed an IC50 of 206 nM. With `CCCS(=O)(=O)N(Cc1ccccn1)c1ccc(N2CCN(C(=O)OCC)CC2)c(C#N)c1` [Compound 32, Ethyl 4-(2-cyano-4-(N-(pyridin-2-ylmethyl)propanesulfonamido)phenyl) piperazin-1-formate], it took 165 nM to reach half-maximal inhibition (IC50).

`N#Cc1cc(N(Cc2ccccc2)S(=O)(=O)c2ccccc2)ccc1N1CCC(O)CC1` [Compound 6, N-benzyl-N-(3-cyano-4-(4-hydroxypiperidin-1-yl)phenyl)benzenesulfonamide] showed an IC50 of 193 nM.

The compound `CCCS(=O)(=O)N(Cc1ccc(F)cc1)c1ccc(SC2CCNCC2)c(C#N)c1` [Compound 51, N-(3-cyano-4-(piperidin-4-ylthio)phenyl)-N-(4-fluorobenzyl) propanesulfonamide] registered a 50% inhibitory concentration (IC50) of 412 nM. For `N#Cc1cc(N(Cc2ccc(F)cc2)S(=O)(=O)c2ccccc2)ccc1N1CCOCC1` [Compound 10, N-(3-cyano-4-morpholinylphenyl)-N-(4-fluorobenzyl) benzenesulfonamide] the value was 98 nM; for `CC(=O)OC1CCN(c2ccc(N(Cc3ccccc3)S(=O)(=O)c3ccccc3)cc2C#N)CC1` [Compound 7, N-benzyl-N-(3-cyano-4-(4-acetyloxypiperidin-1-yl)phenyl)benzenesulfonamide], 312 nM; for `CCCS(=O)(=O)N(Cc1ccc(F)cc1)c1ccc(NC2CCN(C=O)CC2)c(C#N)c1` [Compound 58, N-(4-((1-formylpiperidin-4-yl)amino)-3-cyanophenyl)-N-(4-fluoro-benzyl)propanesulfonamide], 279 nM.

Consider `CCCCS(=O)(=O)N(Cc1ccc(F)cc1)c1ccc(N2CCN(C(=O)N(C)C)CC2)c(C#N)c1` [Compound 38, 4-(2-cyano-4-(N-(4-fluorobenzyl)butanesulfonamido)phenyl)-N,N-dimethylpiperazin-1-formamide], for which the concentration for half-maximal inhibition (IC50) stood at 101 nM. Compound `CCCS(=O)(=O)N(Cc1cncn1C)c1ccc(N2CCN(C(=O)OCC)CC2)c(C#N)c1` [Compound 35, Ethyl 4-(2-cyano-4-(N-((1-methyl-1H-imidazol-5-yl)methyl)propanesulfonamido)phenyl)piperazin-1-formate] displayed an IC50 of 201 nM. The value for `CN1CCCN(c2ccc(N(Cc3ccccc3)S(=O)(=O)c3ccccc3)cc2C#N)C1=O` [Compound 17, N-benzyl-N-(3-cyano-4-(3-methyl-2-oxotetrahydropyrimidin-1(2H)-yl)phenyl)benzenesulfonamide] was 190 nM. The compound `CCCS(=O)(=O)N(Cc1ccc(F)cc1)c1ccc(OC2CCN(C=O)CC2)c(C#N)c1` [Compound 56, N-(4-((1-formylpiperidin-4-yl)oxy)-3-cyanophenyl)-N-(4-fluorobenzyl) propanesulfonamide] returned a concentration for half-maximal inhibition (IC50) of 250 nM.

Compound `CCCS(=O)(=O)N(Cc1ccc(F)cc1)c1ccc(N2CCN(C(=O)OCC)CC2)c(C#N)c1` [Compound 9, ethyl 4-(2-cyano-4-(N-(4-fluorobenzyl)propanesulfonamido)phenyl)piperazin-1-formate] had an IC50 of 134 nM. The compound `CCCS(=O)(=O)N(Cc1ccnn1C)c1ccc(N2CCN(C(=O)OCC)CC2)c(C#N)c1` [Compound 36, Ethyl 4-(2-cyano-4-(N-((1-methyl-1H-pyrazol-5-yl)methyl)propanesulfon-amido)phenyl)piperazin-1-formate] yielded an IC50 of 130 nM. On to `CCCS(=O)(=O)N(Cc1ccc(F)cc1)c1ccc(SC2CCN(C(C)=O)CC2)c(C#N)c1` [Compound 54, N-(4-((1-acetylpiperidin-4-yl)thio)-3-cyanophenyl)-N-(4-fluorobenzyl) propanesulfonamide], for which the half-inhibitory concentration (IC50) amounted to 389 nM. As for `CC(=O)NC1CCN(c2ccc(N(Cc3ccccc3)S(=O)(=O)c3ccccc3)cc2C#N)C1` (centres unmarked) [Compound 15, N-(1-(4-(N-benzylbenzenesulfonamido)-2-cyanophenyl)pyrrolidin-3-yl)acetamide], the IC50 worked out at 310 nM. In turn, `CCCS(=O)(=O)N(Cc1ccc(OC)cc1)c1ccc(N2CCN(S(=O)(=O)N(C)C)CC2)c(C#N)c1` [Compound 45, 4-(2-cyano-4-(N-(4-methoxybenzyl)propanesulfonamido)phenyl)-N,N-dimethylpiperazin-1-sulfonamide] came in with a 50% inhibitory concentration (IC50) of 224 nM.

With `CCCS(=O)(=O)N(Cc1ccc(F)cc1)c1ccc(N2CCN(C(=O)OCC)CC2)c(C(F)(F)F)c1` [Compound 49], it took 160 nM to reach half-maximal inhibition (IC50). As for `N#Cc1cc(N(Cc2ccc(F)cc2)S(=O)(=O)c2ccccc2)ccc1N1CCC(O)CC1` [Compound 20, N-(3-cyano-4-(4-hydroxypiperidin-1-yl)phenyl)-N-(4-fluorobenzyl)benzenesulfonamide], 90 nM corresponded to half-maximal inhibition (IC50).

These data come from patent US11993576B2, “N-benzyl-N-arylsulfonamide derivative and preparation and use thereof” (Hangzhou Yirui Pharmaceutical Technology Co., Ltd, priority 2019, dated 2024).
